Tested on: acute or chronic gastritis patients with one or more erosions
Test: Clinical trial in acute or chronic gastritis patients (gastroscopy, Example 3)
Format: in vivo, human
Details: 300 mg, 2 weeks, N=42
Method: The Cinnamomum cassia extract of the Preparation Example 1 according to the present disclosure, placebo, and active control drug were administered to acute and chronic gastritis patients to compare and evaluate the effectiveness and safety of Cinnamomum cassia extract according to the present disclosure in a searching manner and to determine an appropriate dose. Specifically, acute or chronic gastritis patients with one or more erosions identified in a gastroscopy performed within 7 days from the start date of administration of investigational medical product were divided into the following test groups and administered for 2 weeks. • Test group I (group administered with 225 mg of Cinnamomum cassia extract according to the present disclosure) • Test group II (group administered with 450 mg of Cinnamomum cassia extract according to the present disclosure) • Control group I (group administered with placebo) • Control group II (group administered with 180 mg of ethanol soft ext. (20->1) of 95% artemisia) • Control group III (group administered with 300 mg rebamipide) • (1) Effective rate on gastroscopy: The proportion of test subjects whose erosion score on gastroscopy reduced by more than 50% after 2 weeks of administration (visit 3) compared to baseline (visit 1) was calculated according to the following Equation 1, and evaluated according to the criteria in Table 3. [table] • (1) Complete cure rate on gastroscopy: The proportion of test subjects who were completely cured to normal on gastroscopy (0 erosions: erosion score 1 point) after 2 weeks of administration (visit 3) compared to baseline (visit 1) was calculated and evaluated according to the following Equation 2.

O=C(NC(Cc1cc(=O)[nH]c2ccccc12)C(=O)O)c1ccc(Cl)cc1 (stereo not shown) [rebamipide]
Complete cure rate on gastroscopy: 40.48%
Effective example people (complete cure rate on gastroscopy): 17 people
Effective example people (effective rate on gastroscopy): 20 people
Effective rate on gastroscopy: 47.62%
